Reference: ChEMBL document CHEMBL1147060
Active and inactive are the calls of the source. The rule behind the calls is not given here.

Tests used:
[1] = system: U-937; assay: Inhibition of basal TNFalpha release in human U937 cells at 2 uM after 1 hr by ELISA; assay type: functional, cell-based
[2] = system: BMMC; assay: Inhibition of antigen-induced histamine release in wild-type BMMCs at 1 uM after 30 mins; assay type: functional, cell-based; settings: Mus musculus
[3] = species on record: Homo sapiens; assay: Inhibition of antigen-induced histamine release in human basophils at 1 uM after 30 mins; assay type: functional
[4] = system: Mast cell; assay: Inhibition of antigen-induced IL6 secretion in mouse mast cells at 1 uM after 24 hrs by ELISA; assay type: functional, cell-based
[5] = system: BMMC; assay: Inhibition of antigen-induced histamine release in Tec-deficient BMMC at 1 uM after 30 mins; assay type: functional, cell-based; settings: Mus musculus
[6] = system: U-937; assay: Decrease in LPS-induced TNFalpha release in human U937 cells after 1 hr by ELISA; assay type: functional, cell-based
[7] = system: U-937; assay: Decrease in basal TNFalpha release in human U937 cells after 1 hr by ELISA; assay type: functional, cell-based
[8] = system: U-937; assay: Inhibition of LPS-induced TNFalpha release in human U937 cells at 2 uM after 1 hr by ELISA; assay type: functional, cell-based

Cc1nc(Nc2ncc(C(=O)Nc3c(C)cccc3Cl)s2)cc(N2CCN(CCO)CC2)n1
Activity [1]: inactive | Activity [2]: Active | Activity [3]: Active | Activity [4]: Active | Activity [5]: Active | Activity [6]: Active | Activity [7]: Active | Activity [8]: inactive
